Laboratory results from patent publication US20080287443A1, “Treatment of Subgingival Pocket Infections” (priority 2005, published 2008).
“Also recorded” adds a separate entry of the source.

Key:
Porphyromonas gingivalis = assay: Level of key pathogen in sub-gingival samples; type: in vivo; settings: sub-gingival samples after 14 day rinse
Source text: (§1) The treatment routine was changed and they were asked to rinse with 0.2% w/v delmopinol once daily for 14 days (instead of chlorhexidine). They had been given a professional cleaning of their teeth prior to rinsing with Delmopinol but no systemic antibiotics were prescribed. Zithromax was used 6 months prior the current treatment. In addition, a reduction of some key pathogens were found.

Tannerella forsythia = assay: Level of key pathogen in sub-gingival samples; type: in vivo; settings: sub-gingival samples after 14 day rinse
Source text: as §1

gingival inflammation = assay: Clinical observation of gingival inflammation after delmopinol rinsing; type: in vivo, human; settings: one patient, 0.2% w/v rinse once daily for 14 days
Source text: (§2) In this example delmopinol was used as a rinse to treat a patient who had been cared for over a 2-year period. They had been diagnosed with Morbus Crohn (Crohn's Disease) and with oral complications presenting as severe gingival lesions and swollen gingiva. They had been treated with antibiotics (Zithromax) in the past to control their oral infections and routinely used Chlorhexidine 0.12% rinse solution to control the recolonization of pathogens. Chlorhexidine is used routinely for the control of gingival infection/inflammations as an adjunct to other oral hygiene measures. There are, however side-effects with Chlorhexidine, i.e. staining of teeth, loss of taste and a burning sensation. The alcohol content in the Chlorhexidine solution may also cause some problems for patients. The potential burning sensation was in this case problematic and the patient was not compliant with Chlorhexidine rinsing. The treatment routine was changed and they were asked to rinse with 0.2% w/v delmopinol once daily for 14 days (instead of chlorhexidine). They had been given a professional cleaning of their teeth prior to rinsing with Delmopinol but no systemic antibiotics were prescribed. Zithromax was used 6 months prior the current treatment. The following clinical observations were made: 2.

Treponema denticola = assay: Level of key pathogen in sub-gingival samples; type: in vivo; settings: sub-gingival samples after 14 day rinse; FIG. 2
Source text: as §1, with “FIG. 2 illustrates the reduction of Treponema denticola and Aggregatibacter actinomycetemcomitans after the 14 day course of delmopinol treatment. The treatment” for “The treatment”

[1] = tested on: Aggregatibacter actinomycetemcomitans; assay: Level of key pathogen in sub-gingival samples; type: in vivo; settings: sub-gingival samples after 14 day rinse; FIG. 2
Source text: as §1, with “FIG. 2 illustrates the reduction of Treponema denticola and Aggregatibacter actinomycetemcomitans after the 14 day course of delmopinol treatment. The treatment” for “The treatment”

[2] = tested on: total bacterial load from sub-gingival samples; assay: Total bacterial load in sub-gingival samples from four sub-gingival pockets; type: in vivo, human; settings: pockets 13, 23, 37 and 42; after 2 week rinse vs before; FIG. 1
Source text: FIG. 1 illustrates the sub-gingival reduction in bacterial load, in four selected sub-gingival pockets, after a 14 day course of delmopinol rinsing (once daily); and The treatment routine was changed and they were asked to rinse with 0.2% w/v delmopinol once daily for 14 days (instead of chlorhexidine). They had been given a professional cleaning of their teeth prior to rinsing with Delmopinol but no systemic antibiotics were prescribed. Zithromax was used 6 months prior the current treatment.

[3] = human, in vivo
Source text: as §2, with “1.” for “2.”

For CCCC(CCC)CCCC1COCCN1CCO (stereo not shown) [delmopinol, 3-(4-propyl-heptyl)-4-(2-hydroxyethyl)morpholine], the “level of Porphyromonas gingivalis” value (Porphyromonas gingivalis) was “not reduced”, the “level of Tannerella forsythia” value (Tannerella forsythia) was “not reduced” and the “extent of gingival inflammation (bleeding on probing, gingival swelling, ulcerations)” value (gingival inflammation) was “clinically reduced”. The “level of Treponema denticola” value (Treponema denticola) was “significantly reduced”, the “level of Aggregatibacter actinomycetemcomitans” value [1] was “significantly reduced; also recorded: eliminated” and the “total bacterial load from sub-gingival samples” value [2] was “significant reduction”. For the same compound, the “side-effects reported by the patient (staining, burning sensation)” value [3] was “no staining or burning sensation”.
